Counter-ions that a name gives are not always drawn. Where only a bound is given, the exact number is not on record here.

As usually defined, the IC50 is the concentration needed to halve the response being measured. As a reminder, the melting point is the temperature of the solid-liquid transition.

In the first series the target is T1, 5-HT uptake (Rattus norvegicus, UniProt P31652).
T1 construct: In the serotonin uptake experiment cortex was used as tissue; from tissue; host or cells: frontal cortex of male Wistar rats
T1 sequence (P31652 whole entry): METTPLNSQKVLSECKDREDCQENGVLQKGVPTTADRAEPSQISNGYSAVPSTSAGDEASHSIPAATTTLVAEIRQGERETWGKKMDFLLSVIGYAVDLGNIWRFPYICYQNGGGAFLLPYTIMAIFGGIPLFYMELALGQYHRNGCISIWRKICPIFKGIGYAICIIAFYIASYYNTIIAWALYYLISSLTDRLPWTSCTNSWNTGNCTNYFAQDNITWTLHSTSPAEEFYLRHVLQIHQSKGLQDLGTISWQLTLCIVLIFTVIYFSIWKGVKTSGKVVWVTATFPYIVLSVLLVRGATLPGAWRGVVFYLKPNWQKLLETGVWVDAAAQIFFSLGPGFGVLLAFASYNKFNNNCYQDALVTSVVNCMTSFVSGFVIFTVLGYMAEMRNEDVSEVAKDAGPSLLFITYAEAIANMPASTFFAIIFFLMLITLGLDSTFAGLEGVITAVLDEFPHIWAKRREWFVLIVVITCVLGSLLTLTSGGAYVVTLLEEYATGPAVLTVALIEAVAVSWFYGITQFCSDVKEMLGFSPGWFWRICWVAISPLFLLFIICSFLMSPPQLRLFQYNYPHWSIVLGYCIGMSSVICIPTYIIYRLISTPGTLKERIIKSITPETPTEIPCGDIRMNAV
Description: Serotonin uptake experiment (tritiated serotonin, cortex). In kind it is biochemical. The conditions noted are these: cortex tissue; ligand tritiated serotonin; non-specific ligand fluoxetine (100 μM); read-out: Inhibition of 5-HT uptake, IC50. The protocol:
(§1) Human cloned receptors or frontal cortex preparations of male Wistar rats weighing 120-200 g were used for the experiments. The protein contents of membrane preparations were determined according to the method of Lowry (1951).
(§2) In the course of 5-HT7 receptor binding studies the applied tissue was CHO cell culture, the ligand was ^3H-LSD, and for the non-specific binding clozapine (25 μM) was used as ligand. In the serotonin uptake experiment cortex was used as tissue. As ligand tritiated serotonin, as non-specifically binding ligand fluoxetine (100 μM) was applied.
(§3) IC50 is the concentration where the difference between whole binding and non-specific binding in the presence of 10 μM serotonin creatinine sulfate is 50%. The compounds with an IC50 value smaller than 100 nmol were considered effective in this test.
`O=C1Nc2ccccc2C1CCCCN1CC=C(c2ccc(Cl)cc2)CC1` (centres unmarked) [Example 13, 3-{4-[4-(4-Chlorophenyl)-1,2,3,6-tetrahydro-pyridin-1-yl]-butyl}-1,3-dihydro-2H-indol-2-one]: the IC50 was < 100 nM.

For `O=C1Nc2ccc(F)cc2C1CCCCN1CC=C(c2cccc(C(F)(F)F)c2)CC1` (centres unmarked) [Example 14, 5-Fluoro-3-{4-[4-(3-trifluoromethyl-phenyl)-1,2,3,6-tetrahydropyridin-1-yl]-butyl}-1,3-dihydro-2H-indol-2-one monohydrochloride], the IC50 was < 100 nM.

Tested on in another series: not given
Test: not given
Settings: not given
The compound `O=C1Nc2ccccc2C1CCCCN1CC=C(c2ccccc2)CC1` (centres unmarked) came in with a melting point of 121 to 126 °C. Turning to `O=C1Nc2ccc(F)cc2C1CCCCN1CCc2sccc2C1` (centres unmarked) (as salt: hydrochloride) [Example 7, 3-[4-(6,7-Dihydro-4H-thieno[3,2-c]pyridin-5-yl)-butyl]-5-fluoro-1,3-dihydro-2H-indol-2-one monohydrochloride], the melting point fell in the range of 192 to 194 °C. In turn, `O=C1Nc2ccccc2C1CCCCN1CCc2sc(Cl)cc2C1` (centres unmarked) (as salt: hydrochloride) [Example 8, 3-[4-(2-Chloro-6,7-dihydro-4H-thieno[3,2-c]-pyridin-5-yl)-butyl]-1,3-dihydro-2H-indol-2-one monohydrochloride] came in with a melting point of 103 to 106 °C. `O=C1Nc2cc(F)ccc2C1CCCCN1CCc2sccc2C1` (centres unmarked) (as salt: hydrochloride) [Example 9, 3-[4-(6,7-Dihydro-4H-thieno[3,2-c]pyridin-5-yl)-butyl]-6-fluoro-1,3-dihydro-2H-indol-2-one mono-hydrochloride] gave a melting point of 194 to 197 °C. On the same count and under the same terms, the result for `O=C1Nc2cc(F)ccc2C1CCCCN1CCc2sc(Cl)cc2C1` (centres unmarked) (as salt: hydrochloride) [Example 10, 3-[4-(2-Chloro-6,7-dihydro-4H-thieno[3,2-c]-pyridin-5-yl)-butyl]-6-fluoro-1,3-dihydro-2H-indol-2-one monohydrochloride] reads 214 to 216 °C; that for `O=C1Nc2ccc(F)cc2C1CCCCN1CCc2sc(Cl)cc2C1` (centres unmarked) (as salt: hydrochloride) [Example 11, 3-[4-(2-Chloro-6,7-dihydro-4H-thieno[3,2-c]-pyridin-5-yl)-butyl]-5-fluoro-1,3-dihydro-2H-indol-2-one monohydrochloride], 161 to 163 °C.

With `O=C1Nc2cc(F)ccc2C1CCCCN1CC=C(c2cccc(C(F)(F)F)c2)CC1` (centres unmarked) (as salt: hydrochloride) [Example 12, 6-Fluoro-3-{4-[4-(3-trifluoromethyl-phenyl)-1,2,3,6-tetrahydropyridin-1-yl]-butyl}-1,3-dihydro-2H-indol-2-one monohydrochloride], the melting point was in the range of 203 to 205 °C. Still for that read-out and setting: the result for `O=C1Nc2ccc(F)cc2C1CCCCN1CC=C(c2cccc(C(F)(F)F)c2)CC1` (centres unmarked) (as salt: hydrochloride) [Example 14, 5-Fluoro-3-{4-[4-(3-trifluoromethyl-phenyl)-1,2,3,6-tetrahydropyridin-1-yl]-butyl}-1,3-dihydro-2H-indol-2-one monohydrochloride] reads 201 to 204 °C; that for `O=C1Nc2ccccc2C1CCCCN1CC=C(c2cccc(C(F)(F)F)c2)CC1` (centres unmarked) (as salt: oxalate) [Example 5, 3-{4-[4-(3-Trifluoromethyl-phenyl)-1,2,3,6-tetrahydropyridin-1-yl]-butyl}-1,3-dihydro-2H-indol-2-one monooxalate], 159 to 161 °C.

As for `O=C1Nc2ccccc2C1CCCCN1CCc2sccc2C1` (centres unmarked) (as salt: oxalate) [Example 6, 3-[4-(6,7-Dihydro-4H-thieno[3,2-c]pyridin-5-yl)-butyl]-1,3-dihydro-2H-indol-2-one monooxalate], the melting point lay within 168 to 170 °C. `O=C1Nc2ccccc2C1CCCCN1CC=C(c2ccc(Cl)cc2)CC1` (centres unmarked) [Example 13, 3-{4-[4-(4-Chlorophenyl)-1,2,3,6-tetrahydro-pyridin-1-yl]-butyl}-1,3-dihydro-2H-indol-2-one]: the melting point was in the range of 122 to 124 °C.

For another series, the target named is T2, 5-HT7 receptor (Homo sapiens, UniProt P34969).
T2 construct: expressed in transfected cells; host or cells: CHO cell culture
T2 sequence (P34969 whole entry): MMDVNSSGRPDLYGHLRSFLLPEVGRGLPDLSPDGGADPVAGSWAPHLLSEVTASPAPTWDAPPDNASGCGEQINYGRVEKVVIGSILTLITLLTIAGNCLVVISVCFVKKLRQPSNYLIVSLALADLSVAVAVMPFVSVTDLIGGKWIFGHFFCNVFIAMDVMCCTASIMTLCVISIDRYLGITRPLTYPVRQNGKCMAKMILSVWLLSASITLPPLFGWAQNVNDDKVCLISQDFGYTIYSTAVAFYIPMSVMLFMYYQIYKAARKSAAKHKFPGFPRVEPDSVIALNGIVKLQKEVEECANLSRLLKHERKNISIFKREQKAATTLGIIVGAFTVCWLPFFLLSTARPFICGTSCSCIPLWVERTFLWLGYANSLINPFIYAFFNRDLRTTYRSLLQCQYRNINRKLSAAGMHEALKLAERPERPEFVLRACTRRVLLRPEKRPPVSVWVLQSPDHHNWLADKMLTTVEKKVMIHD
In words: 5-HT7 receptor binding (3H-LSD, CHO cell culture). The conditions noted are these: ligand 3H-LSD, non-specific binding clozapine (25 μM), read-out: Inhibition of 5-HT7 receptor binding, IC50. How it is done:
as §1, §2, §3
As to `O=C1Nc2ccccc2C1CCCCN1CC=C(c2cccc(C(F)(F)F)c2)CC1` (centres unmarked) [Example 5, 3-{4-[4-(3-Trifluoromethyl-phenyl)-1,2,3,6-tetrahydropyridin-1-yl]-butyl}-1,3-dihydro-2H-indol-2-one monooxalate], the IC50 was < 100 nM. For the compound `O=C1Nc2ccccc2C1CCCCN1CCc2sccc2C1` (centres unmarked) [Example 6, 3-[4-(6,7-Dihydro-4H-thieno[3,2-c]pyridin-5-yl)-butyl]-1,3-dihydro-2H-indol-2-one monooxalate], the 50% inhibitory concentration (IC50) is < 100 nM. The same measure, in the same setting: the result for `O=C1Nc2ccc(F)cc2C1CCCCN1CCc2sccc2C1` (centres unmarked) [Example 7, 3-[4-(6,7-Dihydro-4H-thieno[3,2-c]pyridin-5-yl)-butyl]-5-fluoro-1,3-dihydro-2H-indol-2-one monohydrochloride] reads < 100 nM. For the compound `O=C1Nc2ccccc2C1CCCCN1CCc2sc(Cl)cc2C1` (centres unmarked) [Example 8, 3-[4-(2-Chloro-6,7-dihydro-4H-thieno[3,2-c]-pyridin-5-yl)-butyl]-1,3-dihydro-2H-indol-2-one monohydrochloride], the IC50 is < 100 nM. Consider `O=C1Nc2cc(F)ccc2C1CCCCN1CCc2sccc2C1` (centres unmarked) [Example 9, 3-[4-(6,7-Dihydro-4H-thieno[3,2-c]pyridin-5-yl)-butyl]-6-fluoro-1,3-dihydro-2H-indol-2-one mono-hydrochloride], for which the IC50 is < 100 nM. Take `O=C1Nc2cc(F)ccc2C1CCCCN1CCc2sc(Cl)cc2C1` (centres unmarked) [Example 10, 3-[4-(2-Chloro-6,7-dihydro-4H-thieno[3,2-c]-pyridin-5-yl)-butyl]-6-fluoro-1,3-dihydro-2H-indol-2-one monohydrochloride]: the IC50 was < 100 nM. Turning to `O=C1Nc2ccc(F)cc2C1CCCCN1CCc2sc(Cl)cc2C1` (centres unmarked) [Example 11, 3-[4-(2-Chloro-6,7-dihydro-4H-thieno[3,2-c]-pyridin-5-yl)-butyl]-5-fluoro-1,3-dihydro-2H-indol-2-one monohydrochloride], the IC50 was < 100 nM.

Consider `O=C1Nc2cc(F)ccc2C1CCCCN1CC=C(c2cccc(C(F)(F)F)c2)CC1` (centres unmarked) [Example 12, 6-Fluoro-3-{4-[4-(3-trifluoromethyl-phenyl)-1,2,3,6-tetrahydropyridin-1-yl]-butyl}-1,3-dihydro-2H-indol-2-one monohydrochloride], for which the IC50 is < 100 nM. For the compound `O=C1Nc2ccccc2C1CCCCN1CC=C(c2ccc(Cl)cc2)CC1` (centres unmarked) [Example 13, 3-{4-[4-(4-Chlorophenyl)-1,2,3,6-tetrahydro-pyridin-1-yl]-butyl}-1,3-dihydro-2H-indol-2-one], the IC50 was < 100 nM. For `O=C1Nc2ccc(F)cc2C1CCCCN1CC=C(c2cccc(C(F)(F)F)c2)CC1` (centres unmarked) [Example 14, 5-Fluoro-3-{4-[4-(3-trifluoromethyl-phenyl)-1,2,3,6-tetrahydropyridin-1-yl]-butyl}-1,3-dihydro-2H-indol-2-one monohydrochloride], the IC50 was < 100 nM.
